Source: article PMC4701504, “Immunogenicity of HLA Class I and II Double Restricted Influenza A-Derived Peptides” (PLoS ONE, 2016)
Read-outs that look alike come from different tables or passages of the source. Where a SMILES comes first, the peptide text is derived from it.

Columns and labels:
[1] = biological target: recombinant HLA-DRA*01:01/DRB1*01:01 molecules (Homo sapiens, UniProt P01903+P01911, A100R/D57E/F55L/F60I/F76Y/I96L/L162R/M171V/P40L/Q125E/R42F/V115G/Y59C); assay: biochemical; assay type: binding
[2] = biological target: HLA-A*02:01 (Homo sapiens, UniProt P04439, D140Y/D185E/D98H/E176V/E277Q/G131W/G231S/I119V/I121R/I166T/I218V/L300P/L318F/N151K/N90K/P208A/P217A/Q86G/Q94H/R138H/R169H/T345S); assay: biochemical; assay type: binding
[3] = tested on: CD8 and CD4 T cells of HLA-A*02:01/HLA-DRB1*01:01 transgenic mice; assay type: in vivo; design: key: I, CD8 response; II, CD4 response; -,no response; details: CAF09 + 20 nmol peptide i.p. three times at two week intervals; IFNγ ELISpot one week after last immunization (Fig 1)
[4] = […], peptide concentration at half-saturation as approximation of KD, read-out: HLA-A*02:01 Measured
[5] = read-out: HLA-DRB1*01:01 Measured

Compound: CSCC[C@H](NC(=O)[C@H](CO)NC(=O)[C@H](CCC(=O)O)NC(=O)[C@H](CCSC)NC(=O)[C@@H](NC(=O)[C@H](CC(=O)O)NC(=O)[C@H](CCCCN)NC(=O)[C@H](CC(C)C)NC(=O)[C@@H](N)Cc1ccccc1)C(C)C)C(=O)O [PB1(166–174)] (H-FLKDVMESM-OH)
- Kd [1]: > 5000 nM
- Kd [2, 4]: 51 nM

Compound: CC[C@H](C)[C@H](NC(=O)[C@H](CCSC)NC(=O)[C@H](C)NC(=O)[C@H](CC(C)C)NC(=O)[C@@H](N)Cc1ccccc1)C(=O)N[C@H](C(=O)N[C@@H](Cc1ccc(O)cc1)C(=O)N[C@@H](CCSC)C(=O)N[C@H](C(=O)O)[C@@H](C)O)[C@@H](C)O [PB1(318–326)] (H-FLAMITYMT-OH)
- Kd [1, 5]: 557 nM
- Kd [2, 4]: 253 nM

Compound: CSCC[C@H](NC(=O)CNC(=O)[C@H](CCSC)NC(=O)[C@H](CCSC)NC(=O)[C@@H](N)CCSC)C(=O)N[C@@H](Cc1ccccc1)C(=O)N[C@@H](CC(N)=O)C(=O)N[C@@H](CCSC)C(=O)N[C@@H](CC(C)C)C(=O)N[C@@H](CO)C(=O)N[C@H](C(=O)O)[C@@H](C)O [PB1(407–417)] (H-MMMGMFNMLST-OH)
- Kd [1, 5]: 315 nM
- Kd [2, 4]: 36 nM

Compound: CSCC[C@H](NC(=O)[C@@H](N)CC(N)=O)C(=O)N[C@@H](CC(C)C)C(=O)N[C@@H](CO)C(=O)N[C@H](C(=O)N[C@H](C(=O)N[C@@H](CC(C)C)C(=O)NCC(=O)N[C@H](C(=O)O)C(C)C)C(C)C)[C@@H](C)O [PB1(413–421)] (H-NMLSTVLGV-OH)
- Kd [1, 5]: > 5000 nM
- Kd [2, 4]: 16 nM

Compound: CSCC[C@H](NC(=O)CN)C(=O)N[C@@H](Cc1ccccc1)C(=O)N[C@@H](CC(N)=O)C(=O)N[C@@H](CCSC)C(=O)N[C@@H](CC(C)C)C(=O)N[C@@H](CO)C(=O)N[C@H](C(=O)N[C@H](C(=O)O)C(C)C)[C@@H](C)O [PB1(410–418)] (H-GMFNMLSTV-OH)
- Kd [1, 5]: 34 nM
- Kd [2, 4]: 23 nM

Compound: CSCC[C@H](NC(=O)CN)C(=O)N[C@@H](Cc1ccccc1)C(=O)N[C@@H](CC(N)=O)C(=O)N[C@@H](CCSC)C(=O)N[C@@H](CC(C)C)C(=O)N[C@@H](CO)C(=O)N[C@H](C(=O)N[C@H](C(=O)N[C@@H](CC(C)C)C(=O)O)C(C)C)[C@@H](C)O [PB1(410–419)] (H-GMFNMLSTVL-OH)
- Kd [1, 5]: 29 nM
- Kd [2, 4]: 384 nM

Compound: CSCC[C@H](NC(=O)[C@@H](N)CCCNC(=N)N)C(=O)NCC(=O)N[C@@H](C)C(=O)N[C@H](C(=O)N[C@H](C(=O)N[C@H](C(=O)N[C@@H](CCC(=O)O)C(=O)N[C@H](C(=O)O)C(C)C)[C@@H](C)O)[C@@H](C)O)C(C)C [M(134–142)] (H-RMGAVTTEV-OH)
- Kd [1, 5]: > 5000 nM
- Kd [2]: 133 nM

Compound: CC[C@H](C)[C@H](NC(=O)[C@@H]1CCCN1C(=O)[C@H](Cc1ccc(O)cc1)NC(=O)[C@H](CCCCN)NC(=O)[C@H](CCSC)NC(=O)[C@H](C)NC(=O)[C@H](CCSC)NC(=O)[C@H](CCSC)NC(=O)[C@@H](N)Cc1c[nH]c2ccccc12)C(=O)O [PB2(49–57)] (H-WMMAMKYPI-OH)
- Kd [1, 5]: > 5000 nM
- Kd [2, 4]: 36 nM

Compound: CC(C)C[C@H](NC(=O)[C@H](CCCCN)NC(=O)[C@H](CC(C)C)NC(=O)[C@@H](NC(=O)[C@H](CC(N)=O)NC(=O)[C@H](CCC(N)=O)NC(=O)[C@H](CCCCN)NC(=O)[C@@H](NC(=O)[C@H](Cc1ccc(O)cc1)NC(=O)[C@H](CCCCN)NC(=O)[C@@H](N)Cc1ccc(O)cc1)C(C)C)[C@@H](C)O)C(=O)N[C@@H](C)C(=O)N[C@H](C(=O)N[C@@H](Cc1c[nH]cn1)C(=O)N[C@@H](Cc1c[nH]cn1)C(=O)N[C@@H](Cc1c[nH]cn1)C(=O)N[C@@H](Cc1c[nH]cn1)C(=O)N[C@@H](Cc1c[nH]cn1)C(=O)N[C@@H](Cc1c[nH]cn1)C(=O)O)[C@@H](C)O [Reference peptide, reference compound] (H-YKYVKQNTLKLATHHHHHH-OH)
- Kd [1]: 8 nM

Compound: CC[C@H](C)[C@H](N)C(=O)N[C@H](C(=O)N[C@@H](CC(C)C)C(=O)N[C@@H](CCCCN)C(=O)N[C@@H](C)C(=O)N[C@@H](CC(N)=O)C(=O)N[C@@H](Cc1ccccc1)C(=O)N[C@@H](CO)C(=O)N[C@H](C(=O)O)C(C)C)[C@@H](C)CC [NS1(128–136)] (H-IILKANFSV-OH)
- Kd [1, 5]: > 5000 nM
- Kd [2, 4]: 45 nM

Compound: CC[C@H](C)[C@H](NC(=O)CNC(=O)[C@@H](NC(=O)[C@H](CC(C)C)NC(=O)[C@@H](N)CO)C(C)C)C(=O)N[C@@H](CC(=O)O)C(=O)N1CCC[C@H]1C(=O)N[C@@H](Cc1ccccc1)C(=O)N[C@@H](CCCNC(=N)N)C(=O)N[C@@H](CC(C)C)C(=O)O [NP(297–306)] (H-SLVGIDPFRL-OH)
- Kd [1]: 460 nM
- Kd [2, 4]: 70 nM

Compound: CC[C@H](C)[C@H](NC(=O)[C@@H]1CCCN1C(=O)[C@H](CCCNC(=N)N)NC(=O)[C@@H](NC(=O)[C@H](CCCCN)NC(=O)[C@H](CC(C)C)NC(=O)[C@H](Cc1c[nH]c2ccccc12)NC(=O)[C@H](CCC(=O)O)NC(=O)[C@H](CCSC)NC(=O)[C@H](CC(C)C)NC(=O)[C@@H](N)C(C)C)[C@@H](C)O)C(=O)O [M(41–51)] (H-VLMEWLKTRPI-OH)
- Kd [1, 5]: 119 nM
- Kd [2, 4]: 101 nM

Compound: CC[C@H](C)[C@H](NC(=O)[C@@H]1CCCN1C(=O)[C@H](Cc1ccc(O)cc1)NC(=O)[C@H](CCCCN)NC(=O)[C@H](CCSC)NC(=O)[C@H](C)NC(=O)[C@H](CCSC)NC(=O)[C@H](CCSC)NC(=O)[C@@H](N)Cc1c[nH]c2ccccc12)C(=O)N[C@H](C(=O)N[C@@H](C)C(=O)O)[C@@H](C)O [PB2(49–59)] (H-WMMAMKYPITA-OH)
- Kd [1, 5]: 528 nM
- Kd [2, 4]: 75 nM

Compound: CSCC[C@H](NC(=O)[C@@H](N)Cc1ccccc1)C(=O)N[C@@H](CCC(N)=O)C(=O)N[C@@H](C)C(=O)N[C@@H](CC(C)C)C(=O)N[C@@H](Cc1c[nH]cn1)C(=O)N[C@@H](CC(C)C)C(=O)N[C@@H](CC(C)C)C(=O)N[C@@H](CC(C)C)C(=O)O [NS2(99–107)] (H-FMQALHLLL-OH)
- Kd [1, 5]: > 5000 nM
- Kd [2, 4]: 13 nM

Compound: CSCC[C@H](NC(=O)CNC(=O)[C@H](CCSC)NC(=O)[C@@H](N)CCSC)C(=O)N[C@@H](Cc1ccccc1)C(=O)N[C@@H](CC(N)=O)C(=O)N[C@@H](CCSC)C(=O)N[C@@H](CC(C)C)C(=O)N[C@@H](CO)C(=O)N[C@H](C(=O)N[C@H](C(=O)O)C(C)C)[C@@H](C)O [PB1(408–418)] (H-MMGMFNMLSTV-OH)
- Kd [1, 5]: 172 nM
- Kd [2, 4]: 51 nM

Compound: CC[C@H](C)[C@H](NC(=O)[C@H](CO)NC(=O)[C@H](CC(C)C)NC(=O)[C@H](CCCCN)NC(=O)[C@H](CC(C)C)NC(=O)[C@H](C)NC(=O)[C@H](CC(=O)O)NC(=O)[C@H](CCSC)NC(=O)[C@H](CC(C)C)NC(=O)[C@H](CC(C)C)NC(=O)[C@@H](N)Cc1ccccc1)C(=O)O [PA(282–292)] (H-FLLMDALKLSI-OH)
- Kd [1, 5]: 23 nM
- Kd [2, 4]: 24 nM

Compound: LLQNSQVYS [NP(306–315)]
- Response: type of immune response, CD4 (second symbol) [3]: -
- Kd ([1]; pH 7, read-out: HLA-DRB1*01:01 Measured): > 5000 nM

Compound: CC[C@H](C)[C@H](NC(=O)[C@H](CC(C)C)NC(=O)[C@H](C)NC(=O)[C@H](CO)NC(=O)[C@H](CCCNC(=N)N)NC(=O)[C@H](C)NC(=O)[C@H](CC(C)C)NC(=O)[C@@H](N)Cc1ccccc1)C(=O)N[C@@H](CC(C)C)C(=O)O [NP(258–266)] (H-FLARSALIL-OH)
- Kd [1, 5]: 97 nM
- Kd [2]: 0.9 nM

Compound: CC[C@H](C)[C@H](NC(=O)[C@H](CC(C)C)NC(=O)[C@@H](N)Cc1ccc(O)cc1)C(=O)N[C@@H](CCCNC(=N)N)C(=O)N[C@@H](C)C(=O)N[C@@H](CC(C)C)C(=O)N[C@H](C(=O)N[C@@H](CC(C)C)C(=O)N[C@@H](CC(N)=O)C(=O)N[C@H](C(=O)N[C@@H](CCSC)C(=O)O)[C@@H](C)O)[C@@H](C)O [PB1(217–227)] (H-YLIRALTLNTM-OH)
- Kd [1, 5]: 76 nM
- Kd [2, 4]: 46 nM
